{"source": "patent US8436039B2", "about": "“Inhibitors of the ATB(0,+) transporter and uses thereof” (Georgia Health Sciences University Research Institute, Inc., priority 2008, dated 2013)", "key": {"[1]": {"system": "MCF7 cells", "assay": "Cell cycle analysis (FACS, propidium iodide) in MCF7 cells", "format": "cell-based, human", "details": "2.5 mM; 24 hours", "protocol": "(§1) MCF10A (an ATB^0,+-negative non-malignant cell line), MCF7 (an ATB^0,+-positive malignant cell line) and MDA-MB453 (an ATB^0,+-negative malignant cell line) cells were cultured in 6-well plates in a regular culture medium in the presence or absence of α-methyl-DL-tryptophan (2.5 mM) for 24, 48 and 72 hours. Cells were fixed in 50% (v/v) ethanol, treated with 0.1% sodium citrate, 1 mg/ml RNase A and 50 μg/ml propidium iodide, and subjected to FACS (Becton Dickinson FACSCalibur™) analysis. The amount of DNA in these cells, detected as chromosome content by propidium iodide binding, was used to identify cells in various stages of cell cycle: G1/G0, 2N; S, 2-4 N; G2/M, 4N (where N is the normal chromosome content).\n(§2) Since treatment with α-methyl-DL-tryptophan suppressed colony formation in malignant cell lines in an ATB^0,+-dependent manner, we investigated the influence of this treatment on cell cycle to determine which stage of the cycle is affected. We used three different cell lines in this experiment: MCF10A (non-malignant and ATB^0,+-negative), MCF7 (malignant and ATB^0,+-positive) and MDA-MB453 (malignant and ATB^0,+-negative) (FIG. 9). […] In contrast, the treatment affected the cell cycle progression in the ATB^0,+-positive MCF7 cell line. The cells were arrested at G1/G0 stage to a significant extent when treated with α-methyl-DL-tryptophan. […]"}, "[2]": {"system": "MDA-MB231, MDA-MB361 and MDA-MB453 cell lines", "assay": "Colony formation assay, malignant ATB^0,+-negative mammary epithelial cell lines", "format": "cell-based, human", "details": "2.5 mM, 12 days, no or very low ATB^0,+", "protocol": "(§3) The colony formation assay was performed as described previously (Thangaraju et al., 2006, Cancer Res. 66, 11560-11564). Mammary epithelial cells were seeded on to 6-well plates (10000 cells per well) in DMEM. After 24 hours, cells were exposed to varying concentrations of α-methyl-DL-tryptophan or 1-methyl-DL-tryptophan for 2 weeks, changing medium every 2 days. Cells were washed with PBS and fixed in 100% (v/v) methanol for 30 min followed by staining with KaryoMAX Giemsa stain for one hour. The wells were washed with water and dried overnight at room temperature. Finally, the dye in the wells was dissolved with 1% SDS in 0.2 M NaOH for one hour, and the attenuance of the released dye was measured at 630 nm.\n(§4) The present studies have identified α-methyl-DL-tryptophan as a blocker of ATB^0,+ and also have shown that the compound is able to block the transport of amino acids via ATB^0,+ under conditions that stimulate those in vivo in terms of amino acid concentrations. […] For this, we treated the human mammary epithelial cell lines with 2.5 mM α-methyl-DL-tryptophan in the presence of regular culture medium for 12 days in clonogenic assay and quantified the colony formation for each cell line in the presence and absence of α-methyl-DL-tryptophan (FIG. 8). […]"}, "[3]": {"system": "MCF7 cells", "assay": "Colony formation assay, dose-response in MCF7 cells", "format": "cell-based", "details": "Homo sapiens, same assay conditions, read-out: IC50 for inhibition of colony formation", "protocol": "as §3, §4"}, "[4]": {"system": "MCF7, T-47D and ZR-75.1 cells", "assay": "Colony formation assay, malignant ATB^0,+-positive mammary epithelial cell lines", "format": "cell-based", "details": "Homo sapiens, 288 h, 2.5 mM, 12 days, regular culture medium", "protocol": "as §3, §4"}, "[5]": {"system": "MCF10A and MDA-MB453 cell lines", "assay": "Cell cycle analysis (FACS, propidium iodide) in ATB^0,+-negative cell lines", "format": "cell-based, human", "details": "2.5 mM; 24, 48 and 72 hours", "protocol": "as §1, §2"}, "[6]": {"details": "mice; 2 mg/ml in drinking water; cited from earlier work"}}, "data": [{"smiles": "CC(N)(Cc1c[nH]c2ccccc12)C(=O)O", "note": "(racemic) [α-methyl-DL-tryptophan]", "values": [{"measurement": "percentage of MCF7 cells in G1/G0-phase", "setting": "[1]", "result": "82±1", "unit": "percentage"}, {"measurement": "percentage of MCF7 cells in S-phase", "setting": "[1]", "result": "3±1", "unit": "percentage"}, {"measurement": "effect on colony formation", "setting": "[2]", "result": "little or no effect"}, {"measurement": "IC50", "setting": "[3]", "result": "160 ± 15", "unit": "µM"}, {"measurement": "inhibition at 2500 µM", "setting": "[4]", "result": "60 to 75", "unit": "%"}, {"measurement": "effect on cell cycle", "setting": "[5]", "result": "no effect on cell cycle"}]}, {"smiles": "Cn1cc(C[C@@H](N)C(=O)O)c2ccccc21", "note": "[1-methyl-D-tryptophan]", "values": [{"measurement": "plasma levels", "setting": "[6]", "result": "35 to 40", "unit": "µM"}]}]}
